For one assay, the target named is T1, Glutaminase kidney isoform, mitochondrial (Homo sapiens, UniProt O94925).
T1 sequence (O94925 whole entry): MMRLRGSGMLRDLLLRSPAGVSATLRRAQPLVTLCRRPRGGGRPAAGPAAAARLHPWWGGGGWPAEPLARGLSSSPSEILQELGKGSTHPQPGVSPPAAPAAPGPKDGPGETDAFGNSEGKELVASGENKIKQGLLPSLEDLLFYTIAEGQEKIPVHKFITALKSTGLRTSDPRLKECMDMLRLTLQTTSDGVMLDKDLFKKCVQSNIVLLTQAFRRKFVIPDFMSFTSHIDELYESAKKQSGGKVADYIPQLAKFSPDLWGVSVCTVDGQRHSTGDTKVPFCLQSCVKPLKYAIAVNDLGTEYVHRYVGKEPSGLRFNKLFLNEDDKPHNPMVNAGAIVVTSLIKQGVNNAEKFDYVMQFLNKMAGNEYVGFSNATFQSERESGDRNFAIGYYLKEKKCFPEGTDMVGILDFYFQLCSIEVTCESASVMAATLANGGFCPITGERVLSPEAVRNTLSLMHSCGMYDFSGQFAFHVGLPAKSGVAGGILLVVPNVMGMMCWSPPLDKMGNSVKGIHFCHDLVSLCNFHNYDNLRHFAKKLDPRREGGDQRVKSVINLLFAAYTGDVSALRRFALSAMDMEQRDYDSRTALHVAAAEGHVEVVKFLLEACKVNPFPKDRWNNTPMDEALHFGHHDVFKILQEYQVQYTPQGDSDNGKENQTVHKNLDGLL
In words: Inhibition of GAC (unknown origin).
Take `O=C(Cc1ccccc1)Nc1nnc([C@@H]2CCC[C@H](c3nnc(NC(=O)Cc4ccccc4)s3)C2)s1`: the IC50 lay within 1 to 2 µM.
Molecule `O=C(Cc1ccccc1)Nc1nnc(CCCCc2cc3cc(Cc4ccccc4)[nH]c3nn2)s1` yielded an IC50 of less than 0.1 µM.
In turn, `O=C(Cc1ccccc1)Nc1ccn(CCCCn2cc(C(=O)NCc3cccc(OC(F)(F)F)c3)nn2)c(=O)c1F` showed an IC50 of less than 0.1 µM.
Take `O=C(Cc1ccccc1)Nc1nnc(CCCCn2ccc(NC(=O)Cc3ccccc3)c(F)c2=O)s1`: the IC50 is less than 0.1 µM.
The molecule `O=C(Cc1ccccc1)Nc1ccn(CCCCn2cc(C(=O)NCc3cccc(OC(F)(F)F)c3)nn2)c(=O)c1` came in with an IC50 of less than 0.1 µM.
Same read-out and setting: with `O=C(NCc1ccccc1)c1cn(CCCCc2cc3cc(Cc4ccccc4)[nH]c3nn2)nn1` the figure was less than 0.1 µM.
On to `O=C(Cc1ccccc1)Nc1ccn(CCCCn2ccc(NC(=O)Cc3ccccc3)nc2=O)c(=O)n1`, for which the half-maximal inhibitory concentration (IC50) is more than 0.5 µM.
For the molecule `O=C(Cc1ccccc1)Nc1ccn(CCCCc2nnc(NC(=O)Cc3ccccc3)s2)c(=O)n1`, the 50% inhibitory concentration (IC50) is less than 0.1 µM.
Turning to `O=C(Cc1ccccc1)Nc1ccn(CCCCc2cc3cc(Cc4ccccc4)[nH]c3nn2)c(=O)c1`, the IC50 was less than 0.1 µM.
As to `O=C(Cc1ccccc1)Nc1nnc([C@@H]2CC[C@H](c3nnc(NC(=O)Cc4ccccc4)s3)C2)s1`, the half-inhibitory concentration (IC50) was 1 to 2 µM.
For `O=C(Cc1ccccc1)Nc1nnc(CCCCc2cnc3[nH]c(Cc4ccccc4)nc3c2)s1`, the IC50 was more than 0.5 µM.
`O=C(Cc1ccccc1)Nc1nnc([C@H]2CC[C@H](c3nnc(NC(=O)Cc4ccccc4)s3)C2)s1` (racemic) displayed an IC50 of 0.1 to 0.5 µM.
The molecule `O=C(Cc1ccccc1)Nc1nnc([C@H]2CCC[C@H](c3nnc(NC(=O)Cc4ccccc4)s3)C2)s1` (racemic) displayed an IC50 of less than 0.1 µM.
On the same count and under the same terms, with `O=C(Cc1ccccc1)Nc1nnc(C[C@H]2C[C@@H]2Cc2nnc(NC(=O)Cc3ccccc3)s2)s1` (racemic) the figure was 0.1 to 0.5 µM; with `O=C(Cc1ccccc1)Nc1ccn(CCCCc2nnc(NC(=O)Cc3ccccc3)s2)c(=O)c1`, less than 0.1 µM.
`O=C(Cc1ccccc1)Nc1ccn(CCCCc2ccc(NC(=O)Cc3cccc(OC(F)(F)F)c3)nn2)c(=O)c1`: the IC50 was less than 0.1 µM.

For a further assay, the species on record is Bos taurus. Kind of assay: Inhibition of bovine GDH.
Molecule `O=C(O[C@@H]1Cc2c(O)cc(O)cc2O[C@@H]1c1cc(O)c(O)c(O)c1)c1cc(O)c(O)c(O)c1` had an ED50 of 0.3 µM.
Same read-out and setting: with `O=C(O[C@@H]1Cc2c(O)cc(O)cc2O[C@@H]1c1ccc(O)c(O)c1)c1cc(O)c(O)c(O)c1` the figure was 0.3 µM.

The next assay addresses T1, Glutaminase kidney isoform, mitochondrial. In words: Inhibition of recombinant GAC (unknown origin) after 15 mins in presence of NADPH by glutamate oxidase coupled spectrophotometric analysis.
On to `O=C(Cc1cccc(OC(F)(F)F)c1)Nc1ccc(CCCCc2nnc(NC(=O)Cc3ccccn3)s2)cn1`, for which the concentration for half-maximal inhibition (IC50) was in the range of 0.05 to 0.1 µM.

The target in the next assay is T2, Cystine/glutamate transporter (Homo sapiens, UniProt Q9UPY5).
T2 sequence (Q9UPY5 whole entry): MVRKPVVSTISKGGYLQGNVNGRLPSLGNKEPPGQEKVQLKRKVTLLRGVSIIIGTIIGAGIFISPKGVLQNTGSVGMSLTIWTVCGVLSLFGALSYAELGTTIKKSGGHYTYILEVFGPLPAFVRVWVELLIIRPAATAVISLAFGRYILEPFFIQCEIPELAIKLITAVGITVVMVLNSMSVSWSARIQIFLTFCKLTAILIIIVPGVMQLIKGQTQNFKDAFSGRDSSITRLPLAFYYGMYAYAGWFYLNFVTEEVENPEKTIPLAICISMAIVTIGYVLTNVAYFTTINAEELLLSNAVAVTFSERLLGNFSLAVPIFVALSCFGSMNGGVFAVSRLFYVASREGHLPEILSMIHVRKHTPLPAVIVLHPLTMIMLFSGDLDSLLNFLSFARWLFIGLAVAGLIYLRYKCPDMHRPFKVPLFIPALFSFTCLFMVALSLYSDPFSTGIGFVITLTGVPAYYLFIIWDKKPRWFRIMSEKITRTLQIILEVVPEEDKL
In words: Inhibition of xCT-mediated cystein/glutamate transporter (unknown origin) assessed as reduction in L-[14C]cyctein uptake.
With `O=C(O)c1cc(/N=N/c2ccc(S(=O)(=O)Nc3ccccn3)cc2)ccc1O` [SULFASALAZINE], the IC50 was in the range of 0.16 to 30 µM.
As for `O=C(O)c1cc(/C=C/c2ccc(S(=O)(=O)Nc3ccccn3)cc2)ccc1O`, the 50% inhibitory concentration (IC50) was determined as 30 µM.
`O=C(O)c1cc(C#Cc2ccc(S(=O)(=O)Nc3ccccn3)cc2)ccc1O`: the IC50 is 70 µM.

The next assay has as its target T1, Glutaminase kidney isoform, mitochondrial. In words: Inhibition of human GAC after 10 mins by glutamate oxidase coupled Amplex UltraRed dye based assay.
With `O=C(NCC1CCCCC1)c1cn(CCCCn2cc(C(=O)NCC3CCCCC3)nn2)nn1`, the half-maximal inhibitory concentration (IC50) is more than 0.5 µM.
As to `O=C(NCc1ccccc1)c1cn(CCCCn2cc(C(=O)NCc3cccc(C(F)(F)F)n3)nn2)nn1`, the IC50 was in the range of 0.1 to 0.5 µM.
In turn, `CNC(=O)c1cn(CCCCc2ccc(C(=O)NCc3ccccc3)nn2)nn1` came in with an IC50 of less than 0.1 µM.
On the same count and under the same terms, with `O=C(Cc1ccccc1)Nc1nnc(CCCCn2cc(C(=O)NCc3ccccc3)nn2)s1` the figure was less than 0.1 µM; with `O=C(NCc1cccc(C(F)(F)F)c1)c1cn(CCCCn2cc(C(=O)NCc3cccc(C(F)(F)F)n3)nn2)nn1`, less than 0.1 µM.

For another assay, the target named is T3, Glutaminase kidney isoform, mitochondrial (Homo sapiens) (UniProt O94925).
T3 sequence (whole entry): T1 sequence (O94925 whole entry)
In words: Inhibition of recombinant GAC (unknown origin) at 0.1 uM after 15 mins in presence of NADPH by glutamate oxidase coupled spectrophotometric analysis relative to control.
On to `O=C(Cc1cccc(OC(F)(F)F)c1)Nc1ncc(CCCCc2nnc(NC(=O)Cc3ccccn3)s2)cn1`, for which the inhibition was less than 25%.
Regarding `Cc1nc(NC(=O)Cc2cccc(OC(F)(F)F)c2)ccc1CCCCc1nnc(NC(=O)Cc2ccccn2)s1`, the inhibition is less than 25%.
On the same count and under the same terms, with `O=C(Cc1cccc(OC(F)(F)F)c1)Nc1cnc(CCCCc2nnc(NC(=O)Cc3ccccn3)s2)cn1` the figure was less than 25%; with `O=C(Cc1cccc(OC(F)(F)F)c1)Nc1ccc(CCCCc2nnc(NC(=O)Cc3ccccn3)s2)nc1`, less than 25%.

Source of the values: ChEMBL document CHEMBL4330073, “Discovery and development of small molecule modulators targeting glutamine metabolism” (Eur J Med Chem, 2019).
